The Kd is the free concentration of one partner at which half of the binding sites on the other are occupied at equilibrium, for simple one-to-one binding.

The target of the test is T1, murine P-glycoprotein (P-gp, ABCB1; abcb1a, mdr3) (Mus musculus, UniProt P21447).
T1 construct: opti-mdr3 gene product expressed in P. pastoris, purified in DDM
Kind of test: thermostability shift of purified protein (static light scattering, tryptophan fluorescence, CPM dye) giving KD; cryo-EM with additional density (map a). It counts as binding.

T1 sequence (P21447 whole entry): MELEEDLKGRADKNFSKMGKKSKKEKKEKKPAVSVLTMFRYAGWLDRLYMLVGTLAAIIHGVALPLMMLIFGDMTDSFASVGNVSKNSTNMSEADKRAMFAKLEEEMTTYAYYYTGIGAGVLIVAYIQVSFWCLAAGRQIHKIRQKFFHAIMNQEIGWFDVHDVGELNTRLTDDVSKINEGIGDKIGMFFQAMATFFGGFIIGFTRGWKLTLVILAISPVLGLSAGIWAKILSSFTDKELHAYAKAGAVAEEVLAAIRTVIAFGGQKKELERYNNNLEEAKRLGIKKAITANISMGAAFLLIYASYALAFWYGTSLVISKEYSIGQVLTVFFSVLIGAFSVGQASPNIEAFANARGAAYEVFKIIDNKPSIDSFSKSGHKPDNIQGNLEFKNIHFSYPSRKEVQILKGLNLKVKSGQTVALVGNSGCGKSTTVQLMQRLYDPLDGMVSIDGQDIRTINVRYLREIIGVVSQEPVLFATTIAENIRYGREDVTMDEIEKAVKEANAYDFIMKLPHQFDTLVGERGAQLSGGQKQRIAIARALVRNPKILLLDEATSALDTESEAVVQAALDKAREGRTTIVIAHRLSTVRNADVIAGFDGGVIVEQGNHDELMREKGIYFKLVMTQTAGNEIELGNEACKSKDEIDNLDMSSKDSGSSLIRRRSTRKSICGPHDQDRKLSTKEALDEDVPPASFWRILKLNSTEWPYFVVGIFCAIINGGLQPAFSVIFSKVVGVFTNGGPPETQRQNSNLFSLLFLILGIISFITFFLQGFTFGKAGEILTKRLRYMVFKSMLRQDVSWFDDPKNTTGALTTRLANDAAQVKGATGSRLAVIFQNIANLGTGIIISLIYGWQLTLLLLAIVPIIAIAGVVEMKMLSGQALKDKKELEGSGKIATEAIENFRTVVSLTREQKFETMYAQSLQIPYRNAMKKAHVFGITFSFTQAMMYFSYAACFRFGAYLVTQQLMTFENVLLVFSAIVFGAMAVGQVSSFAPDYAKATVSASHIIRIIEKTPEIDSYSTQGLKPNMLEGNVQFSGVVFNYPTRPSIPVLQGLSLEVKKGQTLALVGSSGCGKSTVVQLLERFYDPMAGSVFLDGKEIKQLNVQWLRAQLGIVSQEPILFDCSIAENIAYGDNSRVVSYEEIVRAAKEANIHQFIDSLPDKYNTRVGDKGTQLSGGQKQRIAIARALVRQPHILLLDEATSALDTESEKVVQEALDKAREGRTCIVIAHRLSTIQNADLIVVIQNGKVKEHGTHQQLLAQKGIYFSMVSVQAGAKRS

Turning to `CC(C)(C)c1cc(C(C)(C)C)c(NC(=O)c2c[nH]c3ccccc3c2=O)cc1O` [ivacaftor], the dissociation constant Kd was 200 nM.
